Laboratory results from ChEMBL document CHEMBL1141124 (J Med Chem, 2005).
Starred links: 1 amine or outer side, 2 acyl side, 3 side chain; linkers in the order of their positions; H or OH if unused. Non-standard residues stand in square brackets, D forms with d. Residues, ends and D or L forms follow the SMILES beside them. X2 = O=C(c1cc(CN[*:1])cc(Cc2ccc(O)cc2)c1)[*:2]; X1 = O=C(c1cc(Cc2ccc(O)cc2)cc(N[*:1])c1)[*:2]; Phe(4-NH2) = Nc1ccc(C[C@H](N)C(=O)O)cc1

Biological target: T1, Type-1 angiotensin II receptor B (Rattus norvegicus, UniProt P29089)
T1 sequence (P29089 whole entry): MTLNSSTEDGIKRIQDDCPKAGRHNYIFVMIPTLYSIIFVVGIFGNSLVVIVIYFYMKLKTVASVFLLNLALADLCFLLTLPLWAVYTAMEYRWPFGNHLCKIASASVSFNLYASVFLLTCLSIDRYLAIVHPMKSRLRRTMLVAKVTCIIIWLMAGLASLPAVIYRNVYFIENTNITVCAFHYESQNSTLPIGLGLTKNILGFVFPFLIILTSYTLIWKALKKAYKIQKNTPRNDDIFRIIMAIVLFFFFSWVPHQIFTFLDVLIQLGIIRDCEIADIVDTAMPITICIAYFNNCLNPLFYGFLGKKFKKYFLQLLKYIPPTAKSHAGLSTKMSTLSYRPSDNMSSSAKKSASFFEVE
Experiment: Binding affinity for angiotensin II receptor, type 1 in rat liver membrane using [125I]-Ang II as radioligand, in pH 7.4 Tris-HCl buffer for 2 hr at 25 degree C
Assay type: cell membranes

| Compound | Ki [µM] |
| --- | --- |
| CC(C)[C@H](NC(=O)[C@H](CCCN=C(N)N)NC(=O)[C@@H](N)CC(=O)O)C(=O)Nc1cc(Cc2ccc(O)cc2)cc(C(=O)N[C@@H](Cc2c[nH]cn2)C(=O)N2CCC[C@H]2C(=O)N[C@@H](Cc2ccccc2)C(=O)O)c1 (H-DRV[X1]HPF-OH) | 0.0303 |
| CC[C@H](C)[C@H](NC(=O)c1cc(CNC(=O)[C@H](CCCN=C(N)N)NC(=O)[C@@H](N)CC(=O)O)cc(Cc2ccc(O)cc2)c1)C(=O)N[C@@H](Cc1c[nH]cn1)C(=O)N1CCC[C@H]1C(=O)N[C@@H](Cc1ccccc1)C(=O)O (H-DR[X2]IHPF-OH) | > 10 |
| CC[C@H](C)[C@H](NC(=O)[C@H](Cc1ccc(O)cc1)NC(=O)[C@@H](NC(=O)[C@H](CCCNC(=N)N)NC(=O)CNC)C(C)C)C(=O)N[C@@H](Cc1cnc[nH]1)C(=O)N1CCC[C@H]1C(=O)N[C@@H](Cc1ccccc1)C(=O)O | 0.00016 |
| NC(N)=NCCC[C@H](NC(=O)[C@@H](N)CC(=O)O)C(=O)NCc1cc(Cc2ccc(O)cc2)cc(C(=O)N[C@@H](Cc2c[nH]cn2)C(=O)N2CCC[C@H]2C(=O)N[C@@H](Cc2ccccc2)C(=O)O)c1 (H-DR[X2]HPF-OH) | > 10 |
| CC[C@H](C)[C@H](NC(=O)[C@H](Cc1ccc(O)cc1)NC(=O)[C@@H](NC(=O)[C@H](CCCN=C(N)N)NC(=O)[C@@H](N)CC(=O)O)C(C)C)C(=O)N[C@@H](Cc1ccc(N)cc1)C(=O)N1CCC[C@H]1C(=O)N[C@@H](Cc1ccccc1)C(=O)O (H-DRVYI[Phe(4-NH2)]PF-OH) | > 10 |
| CC(C)[C@H](NC(=O)[C@H](CCCN=C(N)N)NC(=O)[C@@H](N)CC(=O)O)C(=O)NCc1cc(Cc2ccc(O)cc2)cc(C(=O)N[C@@H](Cc2c[nH]cn2)C(=O)N2CCC[C@H]2C(=O)N[C@@H](Cc2ccccc2)C(=O)O)c1 (H-DRV[X2]HPF-OH) | > 10 |
| N=C(N)NCCC[C@H](NC(=O)[C@@H](N)CC(=O)O)C(=O)Nc1cc(Cc2ccc(O)cc2)cc(C(=O)N[C@@H](Cc2cnc[nH]2)C(=O)N2CCC[C@H]2C(=O)N[C@@H](Cc2ccccc2)C(=O)O)c1 (H-DR[X1]HPF-OH) | > 10 |
